In patent US20250345314A1 (PUSAN NATIONAL UNIVERSITY INDUSTRY-UNIVERSITY COOPERATION …, priority 2024, published 2025):

How the values were obtained:
Type in all cases: cell-based
[1] = test system: mesenchymal stem cells UCB #001, UCB #006, and UCB #192; assay: Cell viability of mesenchymal stem cells by CCK-8 assay
Procedure: The effects of rapamycin on the survival rate of mesenchymal stem cells and the secretion of HGF and PGE2 were confirmed. Specifically, the mesenchymal stem cells UCB #001, UCB #006, and UCB #192 were treated with rapamycin at various concentrations of 1.25, 2.5, 5, 10, 20, 40, and 80 ng/ml for 24 hours.
(§1) The effects of pirfenidone, a drug used clinically as an anti-fibrotic drug, on the survival rate of mesenchymal stem cells and the secretion of HGF and PGE2 were confirmed in the same manner as rapamycin. The results of confirming the survival rate of mesenchymal stem cells according to pirfenidone treatment were shown in FIG. 3A, and the results of analyzing HGF and PGE2 secretion were shown in FIGS. 3B and 3C, respectively.

[2] = test system: mesenchymal stem cells UCB #001, UCB #006, and UCB #192; assay: PGE2 secretion of mesenchymal stem cells by ELISA; conditions: pirfenidone treatment
Procedure: (§2) In addition, changes in HGF and PGE2 secretion in mesenchymal stem cells treated with rapamycin at various concentrations were analyzed by ELISA. The results of analyzing HGF and PGE2 secretion were shown in FIGS. 2B and 2C, respectively.
as §1

[3] = test system: mesenchymal stem cells UCB #001, UCB #006, and UCB #192; assay: HGF secretion of mesenchymal stem cells by ELISA
Procedure: as §2, §1

Compound	concentration at which cytotoxicity was exhibited ([1]; mesenchymal stem cells, 24 hours, CCK-8) [ng/mL]	PGE2 secretion [2]	cell viability ([1]; UCB #001, pirfenidone 1 to 6 μg/ml, CCK-8)	concentration at which cytotoxicity was exhibited ([1]; UCB #006 and UCB #192, CCK-8) [ng/mL]	cell viability ([1]; UCB #006 and UCB #192, pirfenidone 1 to 10 μg/ml, CCK-8)	HGF secretion ([3]; pirfenidone 20 μg/ml)	HGF secretion ([3]; pirfenidone 4 to 10 μg/ml)
CO[C@H]1C[C@@H]2CC[C@@H](C)[C@@](O)(O2)C(=O)C(=O)N2CCCC[C@H]2C(=O)O[C@H]([C@H](C)C[C@@H]2CC[C@@H](O)[C@H](OC)C2)CC(=O)[C@H](C)/C=C(\C)[C@@H](O)[C@@H](OC)C(=O)[C@H](C)C[C@H](C)/C=C/C=C/C=C/1C [rapamycin]	≥ 80						
Cc1ccc(=O)n(-c2ccccc2)c1 [pirfenidone]		no significant change	increased	≥ 20000	increased	reduced	did not affect
